Values quoted from earlier work as cited in US7432093B2, “Soluble, functional apoptotic protease-activating factor 1 fragments” (The Trustees of Princeton University, priority 2004, dated 2008).

Target: T1, Apaf-1 (Homo sapiens, UniProt O14727)
T1 sequence (O14727 1-1248): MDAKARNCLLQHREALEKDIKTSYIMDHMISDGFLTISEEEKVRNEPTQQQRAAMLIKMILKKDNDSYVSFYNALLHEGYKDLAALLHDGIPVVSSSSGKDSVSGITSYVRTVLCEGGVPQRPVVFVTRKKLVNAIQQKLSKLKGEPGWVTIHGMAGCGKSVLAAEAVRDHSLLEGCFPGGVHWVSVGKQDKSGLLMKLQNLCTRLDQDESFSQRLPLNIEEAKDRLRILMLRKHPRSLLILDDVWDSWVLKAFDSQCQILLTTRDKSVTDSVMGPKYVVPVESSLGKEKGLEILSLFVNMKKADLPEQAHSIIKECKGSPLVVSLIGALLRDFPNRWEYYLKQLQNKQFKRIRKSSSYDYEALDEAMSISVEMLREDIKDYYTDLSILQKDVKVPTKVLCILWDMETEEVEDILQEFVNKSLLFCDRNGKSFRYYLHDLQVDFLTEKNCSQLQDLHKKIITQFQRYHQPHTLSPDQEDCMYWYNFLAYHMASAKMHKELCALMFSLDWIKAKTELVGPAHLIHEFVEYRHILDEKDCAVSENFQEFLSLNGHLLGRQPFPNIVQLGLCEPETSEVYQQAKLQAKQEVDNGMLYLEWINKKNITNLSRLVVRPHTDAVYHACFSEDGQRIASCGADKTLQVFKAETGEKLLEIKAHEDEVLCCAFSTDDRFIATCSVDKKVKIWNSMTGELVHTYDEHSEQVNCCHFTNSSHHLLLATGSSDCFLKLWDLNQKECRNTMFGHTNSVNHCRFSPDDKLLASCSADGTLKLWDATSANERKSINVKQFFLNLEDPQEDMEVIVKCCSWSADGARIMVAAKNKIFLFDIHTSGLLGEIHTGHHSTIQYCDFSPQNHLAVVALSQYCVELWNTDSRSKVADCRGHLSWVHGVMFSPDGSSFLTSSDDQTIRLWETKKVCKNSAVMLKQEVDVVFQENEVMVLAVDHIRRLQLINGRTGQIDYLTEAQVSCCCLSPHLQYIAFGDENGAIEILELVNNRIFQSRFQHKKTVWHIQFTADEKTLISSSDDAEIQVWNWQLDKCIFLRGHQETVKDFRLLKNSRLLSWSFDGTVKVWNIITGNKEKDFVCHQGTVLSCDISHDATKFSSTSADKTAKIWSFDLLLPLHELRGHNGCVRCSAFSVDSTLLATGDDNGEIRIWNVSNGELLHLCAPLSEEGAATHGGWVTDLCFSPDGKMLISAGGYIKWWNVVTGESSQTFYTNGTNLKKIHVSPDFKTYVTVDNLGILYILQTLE
Details: observed by others, explained by the structure; cited from earlier work

Nc1nc2c(ncn2[C@@H]2O[C@H](COP(=O)(O)OP(=O)(O)OP(=O)(O)O)[C@@H](O)[C@H]2O)c(=O)[nH]1 [GTP]
activation of Apaf-1: does not activate Apaf-1
